Assay results taken from ChEMBL document CHEMBL4616720 (J Med Chem, 2020).

How the values were obtained:
[1] = Clearance in Sprague-Dawley rat at 2 mg/kg, iv measured up to 24 hrs by LC-MS/MS analysis; type: ADME, organism-based; settings: in vivo
[2] = Toxicity in BALB/c nude mouse xenografted with human HCT116 cells assessed as adverse effect at 25 to 50 mg/kg, ip administered every 3 days for 21 days; type: organism-based, HCT-116; settings: in vivo
[3] = target: T1, Peptide deformylase, mitochondrial (Homo sapiens) (UniProt Q9HBH1); test: Inhibition of PDF in human A549 cells assessed as decrease in mtDNA encoded COX1 protein level measured after 48 hrs by Western blot analysis; type: cell-based
T1 sequence (whole entry): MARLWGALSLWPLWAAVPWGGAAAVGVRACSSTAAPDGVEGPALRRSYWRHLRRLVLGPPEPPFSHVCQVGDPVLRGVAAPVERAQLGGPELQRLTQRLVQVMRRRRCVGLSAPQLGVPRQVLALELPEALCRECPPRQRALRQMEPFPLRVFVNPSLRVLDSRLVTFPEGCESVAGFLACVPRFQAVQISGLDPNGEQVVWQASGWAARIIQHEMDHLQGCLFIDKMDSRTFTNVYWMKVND

[4] = Apparent volume of distribution at steady state in Sprague-Dawley rat at 2 mg/kg, iv measured up to 24 hrs by LC-MS/MS analysis; type: ADME, organism-based; settings: in vivo, read-out: Vdss(app)
MCF-10A = test: Cytotoxicity against human MCF10A cells assessed as reduction in cell growth measured after 48 hrs by CCK8 assay; type: cell-based
[5] = target: T2, Protein deacetylase HDAC6 (Homo sapiens, UniProt Q9UBN7); test: Inhibition of HDAC6 (unknown origin) using Boc-Lys(Ac)-pNA as substrate preincubated for 20 mins followed by substrate addition and further incubated for 90 mins by fluorescence assay
T2 sequence (Q9UBN7 whole entry): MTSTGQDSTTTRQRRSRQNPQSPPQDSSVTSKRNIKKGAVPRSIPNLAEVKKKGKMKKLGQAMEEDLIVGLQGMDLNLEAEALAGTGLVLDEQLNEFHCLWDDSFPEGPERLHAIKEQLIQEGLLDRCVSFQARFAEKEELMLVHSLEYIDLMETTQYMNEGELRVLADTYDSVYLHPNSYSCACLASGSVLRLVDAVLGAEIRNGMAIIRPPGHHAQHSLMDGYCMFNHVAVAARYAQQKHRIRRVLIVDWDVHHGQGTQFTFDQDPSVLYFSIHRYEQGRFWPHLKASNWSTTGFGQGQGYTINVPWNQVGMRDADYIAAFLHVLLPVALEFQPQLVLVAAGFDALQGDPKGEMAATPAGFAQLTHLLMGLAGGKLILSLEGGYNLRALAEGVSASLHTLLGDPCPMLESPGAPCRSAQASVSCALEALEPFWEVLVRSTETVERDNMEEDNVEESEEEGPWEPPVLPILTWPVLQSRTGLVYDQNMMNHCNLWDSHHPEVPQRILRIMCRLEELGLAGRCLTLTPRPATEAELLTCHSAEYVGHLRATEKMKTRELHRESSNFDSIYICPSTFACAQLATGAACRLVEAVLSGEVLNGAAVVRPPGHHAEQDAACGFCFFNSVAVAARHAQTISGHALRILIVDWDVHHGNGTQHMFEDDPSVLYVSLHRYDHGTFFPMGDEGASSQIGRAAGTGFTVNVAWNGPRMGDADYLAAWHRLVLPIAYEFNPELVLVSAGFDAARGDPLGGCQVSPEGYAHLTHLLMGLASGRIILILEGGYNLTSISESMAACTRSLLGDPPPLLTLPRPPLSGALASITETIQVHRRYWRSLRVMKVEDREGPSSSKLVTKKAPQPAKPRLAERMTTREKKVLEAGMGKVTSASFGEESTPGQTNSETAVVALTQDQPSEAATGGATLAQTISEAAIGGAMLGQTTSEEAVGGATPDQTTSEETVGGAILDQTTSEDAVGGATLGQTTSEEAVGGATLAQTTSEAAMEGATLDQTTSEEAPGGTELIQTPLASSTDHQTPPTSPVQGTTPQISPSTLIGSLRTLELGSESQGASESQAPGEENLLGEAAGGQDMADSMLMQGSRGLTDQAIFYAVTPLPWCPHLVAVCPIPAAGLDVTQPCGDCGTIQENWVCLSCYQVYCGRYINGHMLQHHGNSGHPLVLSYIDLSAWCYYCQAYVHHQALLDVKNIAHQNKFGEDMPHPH

A549 [6] = test: Induction of apoptosis in human A549 cells assessed as late apoptotic cells at 40 uM measured after 24 hrs by Annexin V-FITC/propidium iodide staining based FACSClibur flow cytometry analysis (reference value: 2.32 %); type: functional
A549 [7] = test: Induction of apoptosis in human A549 cells assessed as necrotic cells at 40 uM measured after 24 hrs by Annexin V-FITC/propidium iodide staining based FACSClibur flow cytometry analysis (reference value: 0.37 %); type: functional
HCT-116 [8] = test: Antitumor activity against human HCT116 cells xenografted in BALB/c nude mouse assessed as tumor growth inhibition at 50 mg/kg, ip administered every 3 days for 21 days and measured every second day for 21 days during compound dosing by digital caliper method relative to control; type: functional; settings: HCT-116, ip, read-out: TGI
SJSA-1 = test: Antiproliferative activity against human SJSA1 cells assessed as reduction in cell growth measured after 48 hrs by CCK8 assay; type: functional, cell-based; settings: SJSA-1, 48 h
[9] = target: T3, Peptide deformylase, mitochondrial (Homo sapiens, UniProt Q9HBH1); test: Inhibition of human PDF expressed in Escherichia coli BL21 pLysS using formyl-Met-Ala-His-Ala peptide as substrate measured after 1 hr by fluorescamine-based fluorescence assay
T3 sequence (Q9HBH1 whole entry): T1 sequence (whole entry)

[10] = Selectivity index, ratio of IC50 for human MCF10A cells assessed as reduction in cell growth measured after 48 hrs by CCK8 assay to IC50 for human MCF7 cells assessed as reduction in cell growth measured after 48 hrs by CCK8; type: toxicity; settings: MCF10A cells versus MCF7 cells, read-out: Ratio IC50
HCT-116 [11] = test: Antitumor activity against human HCT116 cells xenografted in ip dosed BALB/c nude mouse assessed as tumor growth inhibition administered every 3 days for 21 days and measured every second day for 21 days during compound dosing by digital caliper method; type: functional, organism-based
[12] = AUC (0 to infinity) in Sprague-Dawley rat at 20 mg/kg, po measured up to 24 hrs by LC-MS/MS analysis; type: ADME, organism-based; set-up: dose 20 mg/kg, route oral, time infinity; settings: in vivo
HL-60 = test: Antiproliferative activity against human HL60 cells assessed as reduction in cell growth measured after 48 hrs by CCK8 assay; type: functional, cell-based; settings: HL-60, 48 h
[13] = Toxicity in KM mouse assessed as clinical changes at <262 mg/kg, ip administered as single dose measured for 14 days; type: organism-based; settings: in vivo, 336 h
[14] = Cmax in Sprague-Dawley rat at 20 mg/kg, po measured at 0.25 hrs by LC-MS/MS analysis; type: ADME, organism-based; set-up: dose 20 mg/kg, route oral; settings: in vivo
[15] = Toxicity in KM mouse assessed as behavioral changes at <262 mg/kg, ip administered as single dose measured daily for 14 days; type: organism-based; settings: in vivo, 336 h

SMILES: O=C(C[C@@H](CC1CCCC1)C(=O)N1CC2(CC2)C[C@H]1c1nc(-c2ccc(F)cc2C(F)(F)F)no1)NO
- CL [1]: 444.7 mL/min/kg
- Activity [2]: Non-Toxic
- inhibition [3]: Dose-dependent effect
- Vd [4]: 5.26 L/kg
- IC50 (MCF-10A): 18100 nM
- IC50 [5]: > 10000 nM
- Activity (A549 [6]): 7.07%
- Activity (A549 [7]): 1.12%
- inhibition in vivo at 50 mg/kg (HCT-116 [8]): 72.5%
- IC50 (SJSA-1): 1940 nM
- IC50 [9]: 4.11 nM
- selectivity ratio at 48 h [10]: 9
- TGI (HCT-116 [11]): Dose-dependent effect
- AUC [12]: 940 ng·h/mL
- IC50 (HL-60): 2020 nM
- Activity [13]: Non-Toxic
- Cmax [14]: 617 ng/mL
- Activity [15]: Non-Toxic
